From ChEMBL document CHEMBL1697731, “Cheminformatics analysis of assertions mined from literature that describe drug-induced liver injury in different species” (Chem Res Toxicol, 2010)

Assays:
Hepatotoxicity [1] = experiment: Literature-mined compound from Fourches et al multi-species drug-induced liver injury (DILI) dataset, effect in humans; conditions: human
Hepatotoxicity [2] = experiment: Literature-mined compound from Fourches et al multi-species drug-induced liver injury (DILI) dataset, effect in non-rodents
Hepatotoxicity [3] = experiment: Literature-mined compound from Fourches et al multi-species drug-induced liver injury (DILI) dataset, effect in rodents; conditions: rodentia

Structure (SMILES): CC1(C)C2CCC1(CS(=O)(=O)[O-])C(=O)C2.O=C1N(Cc2ccccc2)C2C[S+]3CCCC3C2N1Cc1ccccc1 (stereo unspecified) [TRIMETHAPHAN CAMSYLATE]
- Hepatotoxicity (Hepatotoxicity [1]): no drug-induced liver injury reported
- Hepatotoxicity (Hepatotoxicity [2]): drug-induced liver injury reported
- Hepatotoxicity (Hepatotoxicity [3]): no drug-induced liver injury reported

Structure (SMILES): COc1cc(Cc2cnc(N)nc2N)cc(OC)c1OC [TRIMETHOPRIM]
- Hepatotoxicity (Hepatotoxicity [1]; Liver): drug-induced liver injury reported
- Hepatotoxicity (Hepatotoxicity [2]; Liver): no drug-induced liver injury reported
- Hepatotoxicity (Hepatotoxicity [3]; Liver): drug-induced liver injury reported

Structure (SMILES): Cc1c(C)c2c(c(C)c1O)CCC(C)(COc1ccc(CC3SC(=O)NC3=O)cc1)O2 (stereo unspecified) [TROGLITAZONE]
- Hepatotoxicity (Hepatotoxicity [1]): drug-induced liver injury reported
- Hepatotoxicity (Hepatotoxicity [2]): drug-induced liver injury reported
- Hepatotoxicity (Hepatotoxicity [3]): drug-induced liver injury reported

Structure (SMILES): CO[C@H]1C[C@H](O[C@H]2[C@H](C)[C@@H](O[C@@H]3O[C@H](C)C[C@H](N(C)C)[C@H]3OC(C)=O)[C@@H](C)C[C@@]3(CO3)C(=O)[C@H](C)[C@@H](OC(C)=O)[C@@H](C)[C@@H](C)OC(=O)[C@@H]2C)O[C@@H](C)[C@@H]1OC(C)=O [TROLEANDOMYCIN]
- Hepatotoxicity (Hepatotoxicity [1]): drug-induced liver injury reported
- Hepatotoxicity (Hepatotoxicity [2]): drug-induced liver injury reported
- Hepatotoxicity (Hepatotoxicity [3]): drug-induced liver injury reported

Structure (SMILES): Cc1cc(-c2ccc(/N=N/c3c(S(=O)(=O)[O-])cc4cc(S(=O)(=O)[O-])cc(N)c4c3O)c(C)c2)ccc1/N=N/c1c(S(=O)(=O)[O-])cc2cc(S(=O)(=O)[O-])cc(N)c2c1O.[Na+].[Na+].[Na+].[Na+] [TRYPAN BLUE]
- Hepatotoxicity (Hepatotoxicity [1]): no drug-induced liver injury reported
- Hepatotoxicity (Hepatotoxicity [2]): no drug-induced liver injury reported
- Hepatotoxicity (Hepatotoxicity [3]): drug-induced liver injury reported

Structure (SMILES): N[C@@H](Cc1c[nH]c2ccccc12)C(=O)O [TRYPTOPHAN]
- Hepatotoxicity (Hepatotoxicity [1]): no drug-induced liver injury reported
- Hepatotoxicity (Hepatotoxicity [2]): no drug-induced liver injury reported
- Hepatotoxicity (Hepatotoxicity [3]): drug-induced liver injury reported

Structure (SMILES): COC1=C(OC)C(=O)C(C/C=C(\C)CC/C=C(\C)CC/C=C(\C)CC/C=C(\C)CC/C=C(\C)CC/C=C(\C)CC/C=C(\C)CC/C=C(\C)CC/C=C(\C)CCC=C(C)C)=C(C)C1=O [UBIDECARENONE]
- Hepatotoxicity (Hepatotoxicity [1]): no drug-induced liver injury reported
- Hepatotoxicity (Hepatotoxicity [2]): no drug-induced liver injury reported
- Hepatotoxicity (Hepatotoxicity [3]): drug-induced liver injury reported

Structure (SMILES): O=c1cc[nH]c(=O)[nH]1 [URACIL]
- Hepatotoxicity (Hepatotoxicity [1]): drug-induced liver injury reported
- Hepatotoxicity (Hepatotoxicity [2]): no drug-induced liver injury reported
- Hepatotoxicity (Hepatotoxicity [3]): drug-induced liver injury reported

Structure (SMILES): NC(N)=O [UREA]
- Hepatotoxicity (Hepatotoxicity [1]): no drug-induced liver injury reported
- Hepatotoxicity (Hepatotoxicity [2]): no drug-induced liver injury reported
- Hepatotoxicity (Hepatotoxicity [3]): drug-induced liver injury reported

Structure (SMILES): O=c1ccn([C@@H]2O[C@H](CO)[C@@H](O)[C@H]2O)c(=O)[nH]1 [URIDINE]
- Hepatotoxicity (Hepatotoxicity [1]): drug-induced liver injury reported
- Hepatotoxicity (Hepatotoxicity [2]): no drug-induced liver injury reported
- Hepatotoxicity (Hepatotoxicity [3]): drug-induced liver injury reported

Structure (SMILES): C[C@H](CCC(=O)O)[C@H]1CC[C@H]2[C@@H]3[C@@H](O)C[C@@H]4C[C@H](O)CC[C@]4(C)[C@H]3CC[C@]12C [URSODIOL]
- Hepatotoxicity (Hepatotoxicity [1]): drug-induced liver injury reported
- Hepatotoxicity (Hepatotoxicity [2]): drug-induced liver injury reported
- Hepatotoxicity (Hepatotoxicity [3]): drug-induced liver injury reported

Structure (SMILES): C/C=C/C[C@@H](C)C(=O)[C@H]1C(=O)N[C@@H](C(C)C)C(=O)N(C)CC(=O)N(C)[C@@H](CC(C)C)C(=O)N[C@@H](C(C)C)C(=O)N(C)[C@@H](CC(C)C)C(=O)N[C@@H](C)C(=O)N[C@H](C)C(=O)N(C)[C@@H](CC(C)C)C(=O)N(C)[C@@H](CC(C)C)C(=O)N(C)[C@@H](C(C)C)C(=O)N1C [VALSPODAR]
- Hepatotoxicity (Hepatotoxicity [1]): drug-induced liver injury reported
- Hepatotoxicity (Hepatotoxicity [2]): no drug-induced liver injury reported
- Hepatotoxicity (Hepatotoxicity [3]): drug-induced liver injury reported

Structure (SMILES): CN[C@H](CC(C)C)C(=O)N[C@H]1C(=O)N[C@@H](CC(N)=O)C(=O)N[C@H]2C(=O)N[C@H]3C(=O)N[C@H](C(=O)N[C@H](C(=O)O)c4cc(O)cc(O)c4-c4cc3ccc4O)[C@H](O)c3ccc(c(Cl)c3)Oc3cc2cc(c3O[C@@H]2O[C@H](CO)[C@@H](O)[C@H](O)[C@H]2O[C@H]2C[C@](C)(N)[C@H](O)[C@H](C)O2)Oc2ccc(cc2Cl)[C@H]1O [VANCOMYCIN]
- Hepatotoxicity (Hepatotoxicity [1]): drug-induced liver injury reported
- Hepatotoxicity (Hepatotoxicity [2]): no drug-induced liver injury reported
- Hepatotoxicity (Hepatotoxicity [3]): drug-induced liver injury reported

Structure (SMILES): COc1cc2c(Nc3ccc(Br)cc3F)ncnc2cc1OCC1CCN(C)CC1 [VANDETANIB]
- Hepatotoxicity (Hepatotoxicity [1]): drug-induced liver injury reported
- Hepatotoxicity (Hepatotoxicity [2]): no drug-induced liver injury reported
- Hepatotoxicity (Hepatotoxicity [3]): no drug-induced liver injury reported

Structure (SMILES): COc1ccc(C(CN(C)C)C2(O)CCCCC2)cc1 (stereo unspecified) [VENLAFAXINE]
- Hepatotoxicity (Hepatotoxicity [1]): drug-induced liver injury reported
- Hepatotoxicity (Hepatotoxicity [2]): no drug-induced liver injury reported
- Hepatotoxicity (Hepatotoxicity [3]): no drug-induced liver injury reported

Structure (SMILES): COc1ccc(C(=O)N2CCN(c3ccc4c(c3)CCC(=O)N4)CC2)cc1OC [VESNARINONE]
- Hepatotoxicity (Hepatotoxicity [1]): drug-induced liver injury reported
- Hepatotoxicity (Hepatotoxicity [2]): no drug-induced liver injury reported
- Hepatotoxicity (Hepatotoxicity [3]): drug-induced liver injury reported

Structure (SMILES): Nc1ncnc2c1ncn2[C@@H]1O[C@H](CO)[C@@H](O)[C@@H]1O [VIDARABINE]
- Hepatotoxicity (Hepatotoxicity [1]): drug-induced liver injury reported
- Hepatotoxicity (Hepatotoxicity [2]): no drug-induced liver injury reported
- Hepatotoxicity (Hepatotoxicity [3]): drug-induced liver injury reported

Structure (SMILES): C=CC(N)CCC(=O)O (stereo unspecified) [VIGABATRIN]
- Hepatotoxicity (Hepatotoxicity [1]): no drug-induced liver injury reported
- Hepatotoxicity (Hepatotoxicity [2]): no drug-induced liver injury reported
- Hepatotoxicity (Hepatotoxicity [3]): drug-induced liver injury reported

Structure (SMILES): CC[C@]1(O)C[C@@H]2CN(CCc3c([nH]c4ccccc34)[C@@](C(=O)OC)(c3cc4c(cc3OC)N(C)[C@H]3[C@@](O)(C(=O)OC)[C@H](OC(C)=O)[C@]5(CC)C=CCN6CC[C@]43[C@@H]65)C2)C1 [VINBLASTINE]
- Hepatotoxicity (Hepatotoxicity [1]): drug-induced liver injury reported
- Hepatotoxicity (Hepatotoxicity [2]): no drug-induced liver injury reported
- Hepatotoxicity (Hepatotoxicity [3]): drug-induced liver injury reported

Structure (SMILES): CC[C@]1(O)C[C@H]2CN(CCc3c([nH]c4ccccc34)[C@@](C(=O)OC)(c3cc4c(cc3OC)N(C=O)[C@H]3[C@@](O)(C(=O)OC)[C@H](OC(C)=O)[C@]5(CC)C=CCN6CC[C@]43[C@@H]65)C2)C1 [VINCRISTINE]
- Hepatotoxicity (Hepatotoxicity [1]): drug-induced liver injury reported
- Hepatotoxicity (Hepatotoxicity [2]): drug-induced liver injury reported
- Hepatotoxicity (Hepatotoxicity [3]): drug-induced liver injury reported

Structure (SMILES): CC[C@]12C=CCN3CC[C@@]4(c5cc([C@@]6(C(=O)OC)C[C@@H]7C[C@@H](C(C)(F)F)CN(Cc8c6[nH]c6ccccc86)C7)c(OC)cc5N(C)[C@H]4[C@@](O)(C(=O)OC)[C@@H]1OC(C)=O)[C@@H]32 [VINFLUNINE]
- Hepatotoxicity (Hepatotoxicity [1]): no drug-induced liver injury reported
- Hepatotoxicity (Hepatotoxicity [2]): no drug-induced liver injury reported
- Hepatotoxicity (Hepatotoxicity [3]): drug-induced liver injury reported

Structure (SMILES): CCC1=C[C@@H]2CN(C1)Cc1c([nH]c3ccccc13)[C@@](C(=O)OC)(c1cc3c(cc1OC)N(C)[C@H]1[C@@](O)(C(=O)OC)[C@H](OC(C)=O)[C@]4(CC)C=CCN5CC[C@]31[C@@H]54)C2 [VINORELBINE]
- Hepatotoxicity (Hepatotoxicity [1]): drug-induced liver injury reported
- Hepatotoxicity (Hepatotoxicity [2]): no drug-induced liver injury reported
- Hepatotoxicity (Hepatotoxicity [3]): drug-induced liver injury reported
